In this assay the target is T1, MARK4 catalytic domain (Homo sapiens, UniProt Q96L34).
T1 construct: The recombinant MARK4 catalytic domain was used as kinase; made in house; host or cells: E. coli BL21 (DE3)
T1 sequence (Q96L34 59-310 limits assumed): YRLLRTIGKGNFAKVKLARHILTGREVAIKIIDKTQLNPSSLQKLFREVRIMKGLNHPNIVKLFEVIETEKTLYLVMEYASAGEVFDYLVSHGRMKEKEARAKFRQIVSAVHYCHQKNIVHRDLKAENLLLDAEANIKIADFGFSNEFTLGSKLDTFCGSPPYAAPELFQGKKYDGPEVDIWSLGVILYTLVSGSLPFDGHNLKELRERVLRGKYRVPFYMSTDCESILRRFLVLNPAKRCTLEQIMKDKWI
Nature of the assay: Kinase activity assay (ADP-Glo) using MARK4 as enzyme. The assay is classed as biochemical. The following applies: MARK4 5 nM, 100 μM ATP, 5 μM MAP4, 30 min; duplicate, means ± SEM. The method, then: MARK4 catalytic domain sequence was subcloned into pET-28a vector. Protein expression in E. coli. BL21 (DE3) was induced by IPTG overnight at 16°C, and the cells were then pelleted by centrifugation at 4,000 rpm for 15 min and resuspended in 20 mL buffer (20 mM Tris-HCl, 150 mM NaCl, 25 mM imidazole pH 8.0). Proteins were purified by nickel-affinity chromatography followed by thrombin cleavage. The proteins were further purified by size-exclusion chromatography using a Superdex 75 column (GE Healthcare).
The kinase activity of MARK4 was measured via ADP-Glo™ kinase assay kit (Promega, USA) under manufacturer's instruction. The recombinant MARK4 catalytic domain was used as kinase. MARK4 (5 nM) activity was tested in a reaction (10 μL) containing 25 mM Tris (pH 7.6), 10 mM MgCl2, 150 mM NaCl, 1 mM EDTA, 1 mM DTT, 100 μM ATP, 5 μM MAP4 and varied concentrations of samples for 30 min. The reaction progress was monitored on Thermo Scientific Varioskan Flash Multimode Reader. Each data point was collected in duplicate and kinetic parameters were obtained using GraphPad Prism v6.0 software.
For orientation: ADP-Glo turns the ADP formed in a reaction into a luminescent signal.
Usually IC50 stands for the midpoint of a concentration-inhibition curve. `COc1cccc(-c2cc3ccccc3oc2=O)c1` [Compound 30] came in with an IC50 of 39.3 ± 3.12 µM.
As to `COc1cc(Br)cc2cc(-c3ccccc3)c(=O)oc12` [Compound 38], the IC50 was determined as 40.9 ± 4.04 µM.
The value for `COc1ccc(-c2cc3cc(Cl)ccc3oc2=O)cc1OC` [Compound 18] was 31 ± 2.81 µM; that for `O=c1ccc2cc(Cl)cc(Cl)c2o1` [Compound 3] was above 50 µM; that for `O=c1oc2ccccc2cc1-c1ccccc1` [Compound 31] was 35 ± 5.78 µM.
In the case of `COc1ccc(-c2cc3ccccc3oc2=O)cc1` [Compound 29] it was 37.4 ± 2.84 µM; in that of `COc1cccc2ccc(=O)oc12` [Compound 1], above 50 µM.
Consider `O=C(c1ccccc1)c1cc2cc(Cl)ccc2oc1=O` [Compound 49], for which half-maximal inhibition (IC50) was put at 4.12 ± 0.605 µM.
`COc1cc(-c2cc3cc(Br)cc(OC)c3oc2=O)cc(OC)c1OC` [Compound 37] returned a 50% inhibitory concentration (IC50) of 37.8 ± 5.43 µM.
In turn, `O=c1cc(-c2ccccc2)c2c(O)cc(O)cc2o1` [Compound 57] gave an IC50 above 50 µM.
The value for `COc1cccc2cc(-c3ccc(F)cc3)c(=O)oc12` [Compound 17] was above 50 µM; that for `Cc1cc(=O)oc2cc(OCc3ccccc3)cc(OCc3ccccc3)c12` [Compound 59] was above 50 µM; that for `O=c1ccc2cc([N+](=O)[O-])ccc2o1` [Compound 8] was 37.9 ± 3.45 µM.
The value for `COc1cc(Br)cc2cc(-c3ccc(OC(C)=O)cc3)c(=O)oc12` [Compound 42] was above 50 µM.
As to `O=c1sc2ccccc2cc1-c1ccc(F)cc1` [Compound 68, 3-(4-Fluorophenyl)-2H-thiochromen-2-one], inhibition was half-maximal at 32.2 ± 2.75 µM (IC50).
The value for `COc1ccc2c(C)cc(=O)oc2c1` [Compound 55] was above 50 µM; that for `O=c1cc(O)c2ccccc2o1` [Compound 62] was above 50 µM; that for `O=c1oc2ccccc2cc1-c1ccc(F)cc1` [Compound 32] was 37.7 ± 6.07 µM.
The value for `COc1cc(-c2cc3cccc(OC)c3oc2=O)cc(OC)c1OC` [Compound 14] was 34.5 ± 3.3 µM; that for `COc1ccc(-c2cc3cc(Cl)cc(Cl)c3oc2=O)cc1OC` [Compound 23] was 17.4 ± 2.69 µM; that for `O=c1cc(-c2ccccc2)c2c(OCc3ccccc3)cc(OCc3ccccc3)cc2o1` [Compound 61] was above 50 µM.
Compound `Cc1cc(=O)oc2cc(O)cc(O)c12` [Compound 56] registered an IC50 above 50 µM.
In the case of `COc1ccc2oc(=O)ccc2c1` [Compound 5] it was 35 ± 3.73 µM; in that of `Cc1ccc2oc(=O)ccc2c1` [Compound 6], above 50 µM; in that of `CC(=O)c1cc2ccccc2oc1=O` [Compound 51], 25.9 ± 2.73 µM.
Compound `COc1cc(-c2cc3cc(Cl)ccc3oc2=O)cc(OC)c1OC` [Compound 21] gave an IC50 of 25.5 ± 1.01 µM.
In turn, `COc1cccc2cc(C(=O)c3ccccc3)c(=O)oc12` [Compound 48] came in with an IC50 of 2.1 ± 0.372 µM.
In the case of `O=C(c1ccccc1)c1cc2c(ccc3ccccc32)oc1=O` [Compound 54] it was 21.3 ± 2 µM; in that of `COc1cccc2cc(C(C)=O)c(=O)oc12` [Compound 47], 14.6 ± 2.99 µM.
In the case of `COc1ccc(-c2cc3ccccc3oc2=O)cc1OC` [Compound 28] it was above 50 µM.
Compound `O=C(c1ccccc1)c1cc2ccccc2oc1=O` [Compound 52] came in with an IC50 of 27 ± 3.65 µM.
The compound `O=c1ccc2ccccc2o1` [Compound 4] showed an IC50 of 41 ± 5.4 µM.
In the case of `COc1cccc2cc(-c3ccc(Cl)cc3)c(=O)oc12` [Compound 16] it was above 50 µM; in that of `COc1ccc(-c2cc3ccccc3sc2=O)cc1OC` [Compound 67, 3-(3,4-Dimethoxyphenyl)-2H-thiochromen-2-one], 11.1 ± 0.786 µM; in that of `COc1cccc2cc(-c3ccccc3)c(=O)oc12` [Compound 15], 31.5 ± 2.28 µM.
In the case of `CCOc1cccc2ccc(=O)oc12` [Compound 7] it was above 50 µM; in that of `COc1ccc(-c2cc3cc(Br)cc(OC)c3oc2=O)cc1` [Compound 34], above 50 µM; in that of `COc1cccc(-c2cc3cc(Br)cc(OC)c3oc2=O)c1` [Compound 35], 12.8 ± 1.25 µM.
In the case of `COc1ccc(-c2cc3cccc(OC)c3oc2=O)cc1` [Compound 12] it was 22.8 ± 4.61 µM; in that of `COc1ccc(-c2cc3cccc(OC)c3oc2=O)cc1OC` [Compound 11], 29.7 ± 4.21 µM.
As to `O=c1ccc2cc(Cl)ccc2o1` [Compound 2], the IC50 was above 50 µM.
Take `COc1ccc(-c2cc3cc(Cl)cc(Cl)c3oc2=O)cc1` [Compound 24]: the IC50 was found to be 10 ± 3.65 µM.
The compound `COc1ccccc1-c1cc2cc(Cl)cc(Cl)c2oc1=O` [Compound 26] yielded an IC50 above 50 µM.
Turning to `COc1cccc(-c2cc3cccc(OC)c3oc2=O)c1` [Compound 13], the half-maximal inhibitory concentration (IC50) amounted to 8.98 ± 2.74 µM.
Compound `COc1cc(Br)cc2cc(-c3cccc(OC(C)=O)c3)c(=O)oc12` [Compound 41] showed an IC50 above 50 µM.
`COc1cc(OC)c2c(-c3ccccc3)cc(=O)oc2c1` [Compound 60] gave an IC50 above 50 µM.
In the case of `CC(C)(C)C(=O)c1cc2ccccc2oc1=O` [Compound 53] it was 25 ± 2.4 µM; in that of `O=c1cc(OCc2ccccc2)c2ccccc2o1` [Compound 63], above 50 µM; in that of `COc1ccc(-c2cc3cc(Cl)ccc3oc2=O)cc1` [Compound 19], 27 ± 2.38 µM.
In turn, `COc1cc(Br)cc2cc(-c3cccc(O)c3)c(=O)oc12` [Compound 45] showed an IC50 above 50 µM.
Compound `COc1cc(Br)cc2cc(-c3ccc(O)cc3)c(=O)oc12` [Compound 46] had an IC50 above 50 µM.
For `COc1cc(Br)cc2cc(-c3ccc(F)cc3)c(=O)oc12` [Compound 40], the midpoint of inhibition, the IC50, lay at 38.8 ± 4.83 µM.
`COc1cc(-c2cc3cc(Br)cc(OC)c3oc2=O)c(OC)c(OC)c1OC` [Compound 36] came in with an IC50 of 33.6 ± 2.75 µM.
In the case of `COc1ccc(-c2cc3ccccc3sc2=O)cc1` [Compound 66, 3-(4-Methoxyphenyl)-2H-thiochromen-2-one] it was 35.6 ± 3.9 µM.
In the case of `O=c1oc2c(Cl)cc(Cl)cc2cc1-c1ccccc1` [Compound 27] it was 42.1 ± 3.99 µM; in that of `COc1ccccc1-c1cc2cc(Cl)ccc2oc1=O` [Compound 20], above 50 µM; in that of `COc1cccc(-c2cc3cc(Cl)cc(Cl)c3oc2=O)c1` [Compound 25], 7.76 ± 2.93 µM.
Consider `COc1cc(=O)oc2ccccc12` [Compound 64], for which half-maximal inhibition (IC50) required 40.4 ± 2.87 µM.
For `COc1ccc2ccc(=O)oc2c1` [Compound 10], half-maximal inhibition (IC50) was put at 25.1 ± 5.81 µM.
In the case of `O=c1sc2ccccc2cc1-c1ccccc1` [Compound 65] it was 36.1 ± 1.65 µM.
On to `COc1ccc(-c2cc3cc(Br)cc(OC)c3oc2=O)cc1OC` [Compound 33], for which the IC50 is 46.3 ± 3.04 µM.
Turning to `COc1cc(OC)c2c(C)cc(=O)oc2c1` [Compound 58], the IC50 was above 50 µM.
In turn, `O=c1oc2ccc(Cl)cc2cc1-c1ccc(Cl)cc1` [Compound 22] yielded an IC50 of 28 ± 2.01 µM.
Compound `COc1cc(Br)cc2cc(-c3cccnc3)c(=O)oc12` [Compound 44] yielded an IC50 above 50 µM.
The value for `CC(C)(C)c1cc(C(C)(C)C)c2oc(=O)ccc2c1` [Compound 9] was above 50 µM; that for `COc1ccc(OC)c(-c2cc3cc(Br)cc(OC)c3oc2=O)c1` [Compound 43] was above 50 µM; that for `COc1cc(Br)cc2cc(-c3ccc(Cl)cc3)c(=O)oc12` [Compound 39] was 16.9 ± 4.26 µM.

The record behind these values is publication PMC6543911, “Discovery of Coumarin as Microtubule Affinity-Regulating Kinase 4 Inhibitor That Sensitize Hepatocellular Carcinoma to Paclitaxel” (Frontiers in Chemistry, 2019).
